Test results taken from US20180237441A1, “Chemical Compounds” (GlaxoSmithKline Intellectual Property (No.2) Limited, priority 2015, published 2018).
pIC50: −log10 of the molar value.

molecular target: T1, PERK (Homo sapiens, UniProt Q9NZJ5); assay: PERK enzyme assay (HTRF); format: biochemical; settings: 500 μM ATP; at least one experimental run; read-out: PERK Enzyme (500 μM ATP) IC50
T1 sequence (Q9NZJ5 30-1116): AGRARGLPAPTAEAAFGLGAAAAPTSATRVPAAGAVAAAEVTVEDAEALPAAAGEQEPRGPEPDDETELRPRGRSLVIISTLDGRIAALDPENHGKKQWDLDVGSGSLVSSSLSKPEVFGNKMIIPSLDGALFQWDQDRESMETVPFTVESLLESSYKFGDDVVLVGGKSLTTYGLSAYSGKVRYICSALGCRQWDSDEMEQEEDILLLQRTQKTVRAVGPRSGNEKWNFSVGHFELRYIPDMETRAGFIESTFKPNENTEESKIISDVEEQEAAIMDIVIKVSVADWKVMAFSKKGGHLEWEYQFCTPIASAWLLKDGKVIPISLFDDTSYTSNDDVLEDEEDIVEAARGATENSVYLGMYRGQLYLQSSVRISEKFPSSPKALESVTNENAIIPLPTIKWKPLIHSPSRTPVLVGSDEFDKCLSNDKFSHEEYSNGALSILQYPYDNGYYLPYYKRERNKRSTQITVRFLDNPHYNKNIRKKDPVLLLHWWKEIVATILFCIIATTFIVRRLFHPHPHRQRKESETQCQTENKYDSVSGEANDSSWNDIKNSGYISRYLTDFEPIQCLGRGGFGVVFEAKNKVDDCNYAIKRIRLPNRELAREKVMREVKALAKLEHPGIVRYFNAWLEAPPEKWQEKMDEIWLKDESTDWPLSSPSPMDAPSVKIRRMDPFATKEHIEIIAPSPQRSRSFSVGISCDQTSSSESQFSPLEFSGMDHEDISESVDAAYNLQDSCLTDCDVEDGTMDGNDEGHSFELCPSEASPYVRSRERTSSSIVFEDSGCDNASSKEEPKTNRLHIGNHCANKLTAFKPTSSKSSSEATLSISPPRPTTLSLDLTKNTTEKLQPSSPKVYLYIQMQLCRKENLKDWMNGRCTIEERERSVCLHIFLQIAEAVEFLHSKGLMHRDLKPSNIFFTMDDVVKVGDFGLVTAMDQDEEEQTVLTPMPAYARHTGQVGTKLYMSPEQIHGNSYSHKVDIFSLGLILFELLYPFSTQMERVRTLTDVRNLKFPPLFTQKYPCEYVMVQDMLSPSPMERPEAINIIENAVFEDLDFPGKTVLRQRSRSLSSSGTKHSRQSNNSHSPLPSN
Summary of the method: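 GST-PERK (0.75 nM final) pre-incubated 30–60 min with compound (≤1% DMSO) in HEPES pH 7.5/CHAPS/MgCl2/DTT, then 500 μM ATP and 40 nM biotin-eIF2α added for 60 min. EDTA quench; HTRF detection of phospho-eIF2α (Eu anti-rabbit/streptavidin-APC) read after 2 h; IC50 from concentration series.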

**Q.** `CN1C(=O)N(c2ccc(-c3cn(C)c4ncnc(N)c34)c(Cl)c2)CC1c1cc(F)cc(F)c1` (single isomer, unassigned) [Example 127, 1-(4-(4-amino-7-methyl-7H-pyrrolo[2,3-d]pyrimidin-5-yl)-3-chlorophenyl)-4-(3,5-difluorophenyl)-3-methylimidazolidin-2-one] was tested. Which pIC50 did it give?
**A.** 8.21

**Q.** How did the pIC50 turn out when `Cc1nc(N)c2c(-c3ccc(N4CC(c5ccc(F)cc5)N(C)C4=O)cc3F)cn(C)c2n1` (single isomer, unassigned) [Example 70, 1-(4-(4-amino-2,7-dimethyl-7H-pyrrolo[2,3-d]pyrimidin-5-yl)-3-fluorophenyl)-4-(4-fluorophenyl)-3-methylimidazolidin-2-one] was run?
**A.** 7.73

**Q.** `CN1C(=O)N(c2ccc(-c3cn(C)c4ncnc(N)c34)c(F)c2)CC1c1ccncc1` (stereo not drawn) [Example 110, 1-(4-(4-amino-7-methyl-7H-pyrrolo[2,3-d]pyrimidin-5-yl)-3-fluorophenyl)-3-methyl-4-(pyridin-4-yl)imidazolidin-2-one] was tested. Which pIC50 did it give?
**A.** 5.70

**Q.** How did the pIC50 turn out when `CN1C(=O)N(c2ccc(-c3cn(C4CC4)c4ncnc(N)c34)c(F)c2)CC1c1ccccc1` (single isomer, unassigned) [Example 165, 1-(4-(4-amino-7-cyclopropyl-7H-pyrrolo[2,3-d]pyrimidin-5-yl)-3-fluorophenyl)-3-methyl-4-phenylimidazolidin-2-one] was run?
**A.** 8.40

same assay, conditions: PERK Enzyme (500 μM ATP) IC50; at least one experimental run; read-out: PERK Activity

**Q.** `CN1C(=O)N(c2ccc(-c3cn(C)c4ncnc(N)c34)c(Cl)c2)CC1c1cc(F)cc(F)c1` (single isomer, unassigned) [Example 127, 1-(4-(4-amino-7-methyl-7H-pyrrolo[2,3-d]pyrimidin-5-yl)-3-chlorophenyl)-4-(3,5-difluorophenyl)-3-methylimidazolidin-2-one] was tested. Which pIC50 did it give?
**A.** > 7.00

**Q.** How did the pIC50 turn out when `CN1C(=O)N(c2ccc(-c3cn(C4CC4)c4ncnc(N)c34)c(F)c2)CC1c1ccc(F)c(F)c1` (stereo not drawn) [Example 114, 1-(4-(4-amino-7-cyclopropyl-7H-pyrrolo[2,3-d]pyrimidin-5-yl)-3-fluorophenyl)-4-(3,4-difluorophenyl)-3-methylimidazolidin-2-one] was run?
**A.** > 7.00

**Q.** `Cc1nc(N)c2c(-c3ccc(N4CC(c5ccc(F)cc5)N(C)C4=O)cc3F)cn(C)c2n1` (single isomer, unassigned) [Example 70, 1-(4-(4-amino-2,7-dimethyl-7H-pyrrolo[2,3-d]pyrimidin-5-yl)-3-fluorophenyl)-4-(4-fluorophenyl)-3-methylimidazolidin-2-one] was tested. Which pIC50 did it give?
**A.** > 7.00

**Q.** With `Cc1nc(N)c2c(-c3ccc(N4CC(c5ccc(F)c(F)c5)N(C)C4=O)cc3F)cn(C)c2n1` (stereo not drawn) [Example 78, 1-(4-(4-amino-2,7-dimethyl-7H-pyrrolo[2,3-d]pyrimidin-5-yl)-3-fluorophenyl)-4-(3,4-difluorophenyl)-3-methylimidazolidin-2-one] as the compound, how does the pIC50 read?
**A.** > 7.00

**Q.** With `CN1C(=O)N(c2ccc(-c3cn(C)c4ncnc(N)c34)c(F)c2)CC1c1cc(F)cc(Cl)c1` (stereo not drawn) [Example 16, 1-(4-(4-amino-7-methyl-7H-pyrrolo[2,3-d]pyrimidin-5-yl)-3-fluorophenyl)-4-(3-chloro-5-fluorophenyl)-3-methylimidazolidin-2-one] as the compound, how does the pIC50 read?
**A.** 6.00 to 7.00

**Q.** How did the pIC50 turn out when `CN1C(=O)N(c2ccc(-c3cn(C)c4ncnc(N)c34)c(F)c2)CC1c1ccncc1` (stereo not drawn) [Example 110, 1-(4-(4-amino-7-methyl-7H-pyrrolo[2,3-d]pyrimidin-5-yl)-3-fluorophenyl)-3-methyl-4-(pyridin-4-yl)imidazolidin-2-one] was run?
**A.** < 6.00

**Q.** How did the pIC50 turn out when `CN1C(=O)N(c2ccc(-c3cn(C)c4ncnc(N)c34)c(F)c2)CC1c1ccc2c(c1)CCO2` (stereo not drawn) [Example 147, 1-(4-(4-amino-7-methyl-7H-pyrrolo[2,3-d]pyrimidin-5-yl)-3-fluorophenyl)-4-(2,3-dihydrobenzofuran-5-yl)-3-methylimidazolidin-2-one] was run?
**A.** > 7.00

**Q.** With `CN1C(=O)N(c2ccc(-c3cn(C)c4ncnc(N)c34)c(F)c2)CC1c1cc(F)cc(Cl)c1` (single isomer, unassigned) [Example 52, 1-(4-(4-amino-7-methyl-7H-pyrrolo[2,3-d]pyrimidin-5-yl)-3-fluorophenyl)-4-(3-chloro-5-fluorophenyl)-3-methylimidazolidin-2-one] as the compound, how does the pIC50 read?
**A.** 6.00 to 7.00

**Q.** How did the pIC50 turn out when `CN1C(=O)N(c2ccc(-c3cn(C4CC4)c4ncnc(N)c34)c(F)c2)CC1c1cccc(Cl)c1` (stereo not drawn) [Example 148, 1-(4-(4-amino-7-cyclopropyl-7H-pyrrolo[2,3-d]pyrimidin-5-yl)-3-fluorophenyl)-4-(3-chlorophenyl)-3-methylimidazolidin-2-one] was run?
**A.** > 7.00

**Q.** With `Cc1nc(N)c2c(-c3ccc(N4CC(c5ccc(F)cc5)N(C)C4=O)cc3F)cn(C3CC3)c2n1` (stereo not drawn) [Example 91, 1-(4-(4-amino-7-cyclopropyl-2-methyl-7H-pyrrolo[2,3-d]pyrimidin-5-yl)-3-fluorophenyl)-4-(4-fluorophenyl)-3-methylimidazolidin-2-one] as the compound, how does the pIC50 read?
**A.** > 7.00

**Q.** How did the pIC50 turn out when `Cc1nc(N)c2c(-c3ccc(N4CC(c5ccc(Cl)nc5)N(C)C4=O)cc3F)cn(C)c2n1` (single isomer, unassigned) [Example 136, 1-(4-(4-amino-2,7-dimethyl-7H-pyrrolo[2,3-d]pyrimidin-5-yl)-3-fluorophenyl)-4-(6-chloropyridin-3-yl)-3-methylimidazolidin-2-one] was run?
**A.** 6.00 to 7.00

**Q.** With `CN1C(=O)N(c2ccc(-c3cn(C4CC4)c4ncnc(N)c34)c(F)c2)CC1c1cc(F)cc(F)c1F` (single isomer, unassigned) [Example 142, 1-(4-(4-amino-7-cyclopropyl-7H-pyrrolo[2,3-d]pyrimidin-5-yl)-3-fluorophenyl)-3-methyl-4-(2,3,5-trifluorophenyl)imidazolidin-2-one] as the compound, how does the pIC50 read?
**A.** > 7.00

**Q.** `CN1C(=O)N(c2ccc(-c3cn(C4CC4)c4ncnc(N)c34)c(F)c2)CC1c1ccc(F)cc1` (single isomer, unassigned) [Example 164, 1-(4-(4-amino-7-cyclopropyl-7H-pyrrolo[2,3-d]pyrimidin-5-yl)-3-fluorophenyl)-4-(4-fluorophenyl)-3-methylimidazolidin-2-one] was tested. Which pIC50 did it give?
**A.** 6.00 to 7.00

**Q.** With `Cn1cc(-c2ccc(N3CC(c4ccc(F)cc4F)CC3=O)cc2F)c2c(N)ncnc21` (stereo not drawn) [Example 34, 1-(4-(4-amino-7-methyl-7H-pyrrolo[2,3-d]pyrimidin-5-yl)-3-fluorophenyl)-4-(2,4-difluorophenyl)pyrrolidin-2-one] as the compound, how does the pIC50 read?
**A.** 6.00 to 7.00

**Q.** With `Cn1cc(-c2ccc(N3CC(c4cc(F)cc(F)c4)CC3=O)cc2F)c2c(N)ncnc21` (stereo not drawn) [Example 4, 1-(4-(4-Amino-7-methyl-7H-pyrrolo[2,3-d]pyrimidin-5-yl)-3-fluorophenyl)-4-(3,5-difluorophenyl)pyrrolidin-2-one] as the compound, how does the pIC50 read?
**A.** 6.00 to 7.00

**Q.** With `CN1C(=O)N(c2ccc(-c3cn(C4CC4)c4ncnc(N)c34)c(F)c2)CC1c1ccccc1` (single isomer, unassigned) [Example 165, 1-(4-(4-amino-7-cyclopropyl-7H-pyrrolo[2,3-d]pyrimidin-5-yl)-3-fluorophenyl)-3-methyl-4-phenylimidazolidin-2-one] as the compound, how does the pIC50 read?
**A.** > 7.00

**Q.** `CN1C(=O)N(c2ccc(-c3cn(C)c4ncnc(N)c34)cn2)CC1c1cc(F)ccc1F` (stereo not drawn) [Example 40, 1-(5-(4-amino-7-methyl-7H-pyrrolo[2,3-d]pyrimidin-5-yl)pyridin-2-yl)-4-(2,5-difluorophenyl)-3-methylimidazolidin-2-one] was tested. Which pIC50 did it give?
**A.** 6.00 to 7.00

**Q.** `Cc1nc(N)c2c(-c3ccc(N4CC(c5ccc(F)cc5F)N(C)C4=O)cc3F)cn(C(C)C)c2n1` (single isomer, unassigned) [Example 95, 1-(4-(4-amino-7-isopropyl-2-methyl-7H-pyrrolo[2,3-d]pyrimidin-5-yl)-3-fluorophenyl)-4-(2,4-difluorophenyl)-3-methylimidazolidin-2-one] was tested. Which pIC50 did it give?
**A.** 6.00 to 7.00

**Q.** With `CC(C)n1cc(-c2ccc(N3CC(c4cc(F)ccc4F)N(C)C3=O)cc2F)c2c(N)ncnc21` (single isomer, unassigned) [Example 86, 1-(4-(4-amino-7-isopropyl-7H-pyrrolo[2,3-d]pyrimidin-5-yl)-3-fluorophenyl)-4-(2,5-difluorophenyl)-3-methylimidazolidin-2-one] as the compound, how does the pIC50 read?
**A.** 6.00 to 7.00

**Q.** `CN1C(=O)N(c2ccc(-c3cn(C)c4ncnc(N)c34)c(F)c2)CC1c1ccc(F)cc1` (stereo not drawn) [Example 68, 1-(4-(4-amino-7-methyl-7H-pyrrolo[2,3-d]pyrimidin-5-yl)-3-fluorophenyl)-4-(4-fluorophenyl)-3-methylimidazolidin-2-one] was tested. Which pIC50 did it give?
**A.** > 7.00

**Q.** How did the pIC50 turn out when `Cc1nc(N)c2c(-c3ccc(N4CC(c5cc(F)ccc5F)N(C)C4=O)cc3F)cn(C)c2n1` (single isomer, unassigned) [Example 38, 1-(4-(4-amino-2,7-dimethyl-7H-pyrrolo[2,3-d]pyrimidin-5-yl)-3-fluorophenyl)-4-(2,5-difluorophenyl)-3-methylimidazolidin-2-one] was run?
**A.** < 6.00

**Q.** How did the pIC50 turn out when `Cc1nc(N)c2c(-c3ccc(N4CC(c5ccc(F)cc5F)N(C)C4=O)cc3F)cn(C3CC3)c2n1` (single isomer, unassigned) [Example 8, 1-(4-(4-amino-7-cyclopropyl-2-methyl-7H-pyrrolo[2,3-d]pyrimidin-5-yl)-3-fluorophenyl)-4-(2,4-difluorophenyl)-3-methylimidazolidin-2-one] was run?
**A.** > 7.00

**Q.** How did the pIC50 turn out when `CN1C(=O)N(c2ccc(-c3cn(C4CC4)c4ncnc(N)c34)c(F)c2)CC1c1ccc(F)cc1F` (stereo not drawn) [Example 108, 1-(4-(4-amino-7-cyclopropyl-7H-pyrrolo[2,3-d]pyrimidin-5-yl)-3-fluorophenyl)-4-(2,4-difluorophenyl)-3-methylimidazolidin-2-one] was run?
**A.** > 7.00
